Test results taken from patent US10562910B2, “Nitrogen-containing tricyclic compounds and uses thereof in medicine” (SUNSHINE LAKE PHARMA CO., LTD., priority 2016, dated 2020).
pEC50: −log10 of the molar value.

Experiments:
FXR-LBD = FXR-LBD (Homo sapiens (Human), UniProt Q96RI1); experiment: TR-FRET Farnesoid X Receptor Coactivator Assay; assay type: biochemical; conditions: TR-FRET farnesoid X receptor protein coactivator activity
Protocol: Purchasing invitrogen PV4833 kits. The procedure refers to LanthaScreen™ TR-FRET Farnesoid X Receptor Coactivator Assay
First, the required amount of the compound was weighed and dissolved in 100% DMSO at the maximum concentration of 3000 μM. The solution at the maximum concentration was diluted by 3-fold serial dilution in DMSO to get 10 concentrations;
Second, the above prepared solutions of different concentrations were diluted to 50-fold with a buffer supplied with the kit, to 2× compound solution, followed by mixing and then 10 μL of the diluted solution was added to a 384 well plate;
Third, FXR-LBD was diluted with a buffer to 4× solution, and 5 μL of the diluent was added to the 384 well plate of second step;
Fourth, Fluorescein-SRC2-2 and Tb anti-GST antibody were diluted to 4× Fluorescein-SRC2-2 and Tb anti-GST antibody solution. Then two reagents were mixed together, and 5 μL of the mixture was added to the 384 well plate of third step;
Finally, the solution of the 384 well above was mixed uniformly by centrifuging, and then incubated at room temperature for 1 h. Then the TR-FRET Endpoint method was used for measuring the solution at wavelengths of 520 nm, 495 nm and 337 nm.

[1] = biological target: FXR ligand binding domain (LBD) (Homo sapiens (Human), UniProt Q96RI1); experiment: Mammalian one hybrid (M1H) GAL4 reporter gene assay in HEK293 cells; assay type: cell-based; conditions: GAL4 reporter gene test
Text: Mammalian one hybrid technology is also called chimeric receptor gene assay. Based on the GAL4 chimera receptor assay, the activity of compounds which mediated activation of FXR was detected by dual luciferase reporter assay. The methods were as follows: cDNA encoding the FXR ligand binding domain (LBD), the yeast GAL4 DNA binding domain (DBD) and the Renilla luciferase DNA were fused to construct a chimera expression plasmid pBIND-FXR (Promega). […] The plasmid pG5Luc (Promega) was used as the reporter plasmid, containing the GAL4 upstream activation sequence (UAS) and the Firefly luciferase receptor gene. All GAL4 reporter gene assays were done in HEK293 cells. Cells were cultured at 37° C., 5% CO2 under humidified conditions. […] The contents were mixed completely and incubated the mixtures for 15 minutes at room temperature. The volume of the transfection mixture was 2.5 μl/well. Trypsinized and diluted the cell slurry at a density of […] (100 μl/well for 96-well plate). Then added required volume of transfection mixture prepared previously into the cell slurry, and dispensed 100 μl/well of the cell slurry into the 96-well plate and incubated the plate for 24 hours at 37° C., 5% CO2 under humidified conditions. Compounds prediluted in complete medium were added into each well and then incubated at 37° C., 5% CO2 under humidified conditions for 18 hours. The firefly and renilla luciferase signal was assayed by Promega's Dual Luciferase Reporter Assay System.
The % Activation value was calculated by the following equation: Activation %=[(X−Min)/(Max−Min)]×100%. “X” is the “F/R” value from compounds. “F/R” means “Firefly/Renilla”. “Min” is the mean “F/R” value from no compound control. “Max” is the mean “F/R” value from reference compound control. Finally, the EC50 value of each compounds were calculated by GraphPrism 5.0.

FXR ligand binding domain (LBD), sequence (Q96RI1 261-481): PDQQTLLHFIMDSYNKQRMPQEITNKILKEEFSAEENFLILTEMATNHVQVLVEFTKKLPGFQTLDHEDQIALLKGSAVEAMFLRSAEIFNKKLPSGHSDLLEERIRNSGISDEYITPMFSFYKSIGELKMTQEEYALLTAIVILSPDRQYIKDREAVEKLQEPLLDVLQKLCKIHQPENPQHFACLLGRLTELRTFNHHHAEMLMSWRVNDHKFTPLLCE
FXR-LBD, sequence (Q96RI1 262-486): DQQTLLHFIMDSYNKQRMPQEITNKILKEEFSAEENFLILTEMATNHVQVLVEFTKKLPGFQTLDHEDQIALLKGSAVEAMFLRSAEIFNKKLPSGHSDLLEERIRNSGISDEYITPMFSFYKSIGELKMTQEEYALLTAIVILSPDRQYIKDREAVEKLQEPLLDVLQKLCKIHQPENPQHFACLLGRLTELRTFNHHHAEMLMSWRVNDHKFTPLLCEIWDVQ

O=C(O)c1cc2c(cc1O)CCc1nc(OCc3c(-c4c(Cl)cccc4Cl)noc3C3CC3)ccc1O2 [Example 11, 2-((5-cyclopropyl-3-(2,6-dichlorophenyl)isoxazol-4-yl)methoxy)-8-hydroxy-10,11-dihydrobenzo[6,7]oxepino[3,2-b]pyridine-7-carboxylic acid]
pEC50 (FXR-LBD): 7.77
pEC50 [1]: 6.98
